Assay results published in US20260191815A1, “THIOACRYLAMIDE DERIVATIVES FOR USE IN THE PREVENTION OR TREATMENT OF LIVER FIBROSIS” (CMR CUREDIAB METABOLIC RESEARCH GMBH, priority 2022, published 2026).

Columns and labels:
[1] = system: caspase 3/7 activity in HepG2 cells; assay: Caspase 3/7 activity provoked by palmitate in HepG2 cells; assay type: cell-based
Protocol: (§1) The potential protective effect of HK1 and HK3 on caspase 3/7 activity in HepG2 cells and primary human hepatocytes was analysed.
(§2) HepG2 cells were obtained from Merck (Darmstadt, Germany) (ECACC-certified), while primary human hepatocytes were obtained from Thermo Fisher Scientific (Waltham, MA, USA), and all were cultured according to the instructions of the respective manufacturers. During experiments, cells were cultured in serum-free medium. Unless otherwise stated, cells were treated with 200 μM bovine serum albumin (BSA)-conjugated palmitate (Cayman Chemicals, Ann Arbor, MI) alone or in combination with 10 μM HK1 (Taros Chemicals GmbH & Co. KG, Dortmund, Germany) and HK3 (Taros Chemicals GmbH & Co. KG, Dortmund, Germany) 30 min prior to palmitate exposure for 24 hours. The vehicle BSA was used according to the palmitate concentration and DMSO according to HK1 and HK3 concentration. 2 μM Staurosporine (Abcam, Cambridge, GB) was used as a positive and 100 μM Caspase 3/7 inhibitor (CI) (Cayman Chemicals) as a negative control.
(§3) Differences were analysed by one-way ANOVA.
A hepatoprotective effect was determined as described in Example 4. A treatment was performed with HK1, HK2, HK3, HK4 or HK5 (100 nM) either alone or in combination with palmitate (200 μM).
Differences were analysed by one-way ANOVA, n=4.

[2] = system: caspase 3/7 activity in primary human hepatocytes; assay: Caspase 3/7 activity provoked by palmitate in primary human hepatocytes; assay type: cell-based
Protocol: as §1, §2, §3

[3] = system: alpha-1 type 1 collagen (COL1A1) protein in LX2 cells; assay: Simple Western of COL1A1 protein in TGF-β1-stimulated LX2 hepatic stellate cells; assay type: cell-based, human; conditions: 5 ng/ml TGF-β1, 24 h, LX2 cells
Protocol: (§4) The human hepatic stellate cell line LX2 was purchased from Merck. The cells were used up to passage ten and incubated under sterile conditions at 37° C. and 5% CO2. The cells were cultivated in medium containing Dulbecco's Modified Eagle's Medium with 4.5 g/l glucose (ThermoFisher), 4 mmol/l glutamine (ThermoFisher), 2% fetal bovine serum (FBS) (Merck), 100 U/ml penicillin and 100 μg/ml streptomycin (Merck). After 2 days, LX2 cells were starved for FBS for 24 h and then pretreated with 10 μM HK1 (Taros Chemicals GmbH & Co. KG) or 10 μM HK3 (Taros Chemicals GmbH & Co. KG) for 30 min. Subsequently, 5 ng/ml recombinant TGF-β1 (R&D Systems, Minneapolis, MN, USA) was added to the hepatic stellate cell cultures for 24 h. LX2 cells were also incubated with 5 ng/ml TGF-β1 alone as positive control for the hepatic stellate cell activation. Recombinant TGF-β1 was dissolved in sterile 4 mmol/l HCl (Merck) containing 0.1% bovine serum albumin (Roth Karlsruhe, Germany) as carrier protein. HK1 and HK3 were dissolved in sterile dimethyl sulfoxide (DMSO) (Sigma-Aldrich, Munich, Germany). Stimulations with 10 μM HK1, 10 μM HK3 and the corresponding vehicles (HCl and DMSO with or without HCl) alone for 24 h were also included as treatments.
(§5) For the measurement of the pro-fibrotic proteins, Western Blotting was performed. Proteins were extracted from whole cell lysate of LX2 cells using RIPA lysis buffer containing 50 mmol/l Tris-HCl (pH 8.0), 150 mmol/l NaCl, 1% IGEPAL® CA-630, 0.5% sodium deoxycholate, 0.1% sodium dodecyl sulfate, 10% PhosSTOP Phosphatase Inhibitor Cocktail (Roche, Basel, Switzerland) and 10% cOmplete Mini Protease Inhibitor Cocktail (Roche). Lysates were centrifuged at 14850×g for 15 min at 4° C. Then, the total protein content of the lysates was determined using a bicinchoninic acid protein assay (ThermoFisher Scientific) in accordance with the manufacturer's instructions. The quantification of protein abundance was performed by Simple Western size-based assays using a 12-230 kDa and 66-440 kDa Separation Module (ProteinSimple, San Jose, CA, USA) according to the manufacturer's instructions. This fully automated Western blotting system is based on a capillary electrophoresis technology. The separation, immobilization to the capillary wall via a proprietary, photoactivated capture chemistry and immunodetection of the proteins using a horseradish peroxidase (HRP)-conjugated secondary antibody and chemiluminescent substrate take place directly in the capillary without gel separation and transfer steps to blotting paper. The chemiluminescence is measured at multiple exposure times and automatically quantified by the Compass for Simple Western software (version 4.1.0) (ProteinSimple). The chemiluminescent signal for immunodetected proteins, which can be represented as an electropherogram or virtual blot-like image, is automatically quantified by calculation of the area under the curve of the peak.
(§6) The software reports the molecular weight, the area (in an arbitrary unit and in percent) and signal to noise ratio for each protein detected. The primary antibodies for the recognition of endogenous levels of total alpha-1 type 1 collagen (COL1A1) protein (#72026) and total fibronectin 1 (FN1) protein (#26836) were purchased from Cell Signaling Technology (Danvers, MA, USA). The anti-rabbit HRP-linked secondary antibody was from ProteinSimple. […]
(§7) Differences were analysed by one-way ANOVA followed by the Tukey method as correction for multiple testing.

[4] = system: fibronectin 1 (FN1) protein in LX2 cells; assay: Simple Western of FN1 protein in TGF-β1-stimulated LX2 hepatic stellate cells; assay type: cell-based, human; conditions: 5 ng/ml TGF-β1, 24 h, LX2 cells
Protocol: as §4, §5, §6, §7

[5] = system: leukaemia inhibitory factor (LIF) secretion by LX2 cells; assay: Olink Inflammation immunoassay of LX2 supernatants: LIF; assay type: cell-based, human; conditions: 5 ng/ml TGF-β1
Protocol: as §4, with “Recombinant TGF-β1 was dissolved in sterile 4 mmol/l HCl (Merck) containing 0.1% bovine serum albumin (Roth Karlsruhe, Germany) as carrier protein. HK1 and HK3 were dissolved in sterile dimethyl sulfoxide (DMSO) (Sigma-Aldrich, Munich, Germany). Stimulations with 10 μM HK1, 10 μM HK3 and the corresponding vehicles (HCl and DMSO with or without HCl) alone for 24 h were also included as treatments.” left out
(§8) LX2 cells were cultured and treated as described in Example 1. […] This protein quantification method is based on a proximity extension assay technology, which combines a dual-recognition immunoassay using two matched antibodies labelled with DNA oligonucleotides, with a polymerase chain reaction (PCR) amplification and a microfluidic quantitative real-time PCR as readout. […]
as §7

[6] = system: vascular endothelial growth factor A (VEGFA) secretion by LX2 cells; assay: Olink Inflammation immunoassay of LX2 supernatants: VEGFA; assay type: cell-based, human; conditions: 5 ng/ml TGF-β1
Protocol: as §4, with “Recombinant TGF-β1 was dissolved in sterile 4 mmol/l HCl (Merck) containing 0.1% bovine serum albumin (Roth Karlsruhe, Germany) as carrier protein. HK1 and HK3 were dissolved in sterile dimethyl sulfoxide (DMSO) (Sigma-Aldrich, Munich, Germany). Stimulations with 10 μM HK1, 10 μM HK3 and the corresponding vehicles (HCl and DMSO with or without HCl) alone for 24 h were also included as treatments.” left out
as §8, §7

[7] = system: interleukin-6 (IL-6) secretion by LX2 cells; assay: Olink Inflammation immunoassay of LX2 supernatants: IL-6; assay type: cell-based, human; conditions: 5 ng/ml TGF-β1
Protocol: as §4
LX2 cells were cultured and treated as described in Example 1. After the incubation time, the supernatants of LX2 cells were collected, centrifuged for 10 min at 2000×g at 4° C. and transferred to new tubes to measure 92 proteins in the cell culture supernatants simultaneously using the Olink Inflammation multiplex immunoassay (Olink proteomics, Uppsala, Sweden). This panel covers 92 proteins, including pro- and anti-inflammatory cytokines, growth factors, chemokines and factors involved in biological processes such as apoptosis, inflammatory and immune response, cell adhesion, chemotaxis, or fibrosis. This protein quantification method is based on a proximity extension assay technology, which combines a dual-recognition immunoassay using two matched antibodies labelled with DNA oligonucleotides, with a polymerase chain reaction (PCR) amplification and a microfluidic quantitative real-time PCR as readout. The biomarker concentrations are given as normalized protein expression (NPX) values, which were generated from the threshold cycle values from the qPCR, and represent an arbitrary unit on a log 2 scale.
as §7

## COC[C@@H]1CCCN1S(=O)(=O)c1ccc2c(c1)C(=O)C(=O)N2 [Caspase 3/7 inhibitor, reference compound]
[1]; 100 μM caspase 3/7 inhibitor + palmitate 200 μM
  caspase 3/7 activity, % of control: 29.65%±24.56%
[2]; 100 μM inhibitor + palmitate 200 μM
  caspase 3/7 activity, % of control: 21.23%±4.33%

## CN[C@@H]1C[C@H]2O[C@@](C)([C@@H]1OC)n1c3ccccc3c3c4c(c5c6ccccc6n2c5c31)C(=O)NC4 [Staurosporine, reference compound]
[1]; Homo sapiens, 2 μM, positive control
  activity at 2 µM: 687%

## CCCCCCCCCCCCCCCC(=O)O [palmitate, reference compound]
[1]; Homo sapiens, palmitate 200 μM alone, 24 h, read-out: caspase 3/7 activity, % of control
  activity at 200 µM: 429%
[2]; Hepatocyte, palmitate 200 μM alone, read-out: caspase 3/7 activity, % of control
  activity at 200 µM: 129%

## TGF-β1: recombinant TGF-β1 (R&D Systems), positive control for the hepatic stellate cell activation
[3]
  increase of protein levels of COL1A1 compared to untreated cells: 2.6±0.2 fold
[4]
  increase of protein levels of FN1 compared to untreated cells: 3.0±0.2 fold
[5]
  increased secretion of LIF compared to untreated LX2 cells: 35.40±9.76 fold
[6]
  increased secretion of VEGFA compared to untreated LX2 cells: 13.89±2.40 fold
[7]
  increased secretion of IL-6 compared to untreated LX2 cells: 4.99±2.01 fold
